Here are results for three compounds from patent publication US20220332737A1, “CARBOCYCLIC NUCLEOSIDE ANALOGUE” (Ludwig-Maximilians-Universität München, priority 2019, published 2022).

Entries after “also recorded” stand apart in the source; their conditions may differ. Where two headings read alike, the source gives them in different places.

For data set [1], the system named is mouse embryonic stem cells (mESC). As to the kind of experiment: Treatment of primed mESC, UHPLC-MS2 quantification of genome incorporation and mdC/hmdC levels. The class given is cell-based. Conditions: for level incorporated into the genome: primed mESC. On the procedure: Feeder independent wt J1 (strain 129S4/SvJae) cells were cultured in the presence of serum and LIF as previously described. They were routinely maintained on gelatinized plates in 2i/L medium. For priming experiments, 2i cultures were passaged when applicable in DMEM supplemented with FBS and LIF as above but lacking the inhibitors. For drug treatment, cells were moved into the primed state by removing 2i from the medium. Cells were incubated 2 d in DMEM supplemented with FBS and LIF in 6-well plates (VWR). After splitting, 2×10^5 cells were transferred into a 6-well plate culture dish and supplemented with either 1 μM (in 0.01% DMSO) or 5 μM cAzadC (in 0.05% DMSO) and treated for 72 h. After removal of the medium and washing the cells with DPBS, they were directly lysed with RLT^+ buffer as described in a previous publication.
The gDNA was isolated as described previously. The gDNA was directly subjected to a total enzymatic digest and analyzed using UHPLC-MS^2 as described in a previous publication. The external calibration curve was generated by serially diluting pure cAzadC [20 pmol, 10 pmol, 5 pmol, 2.5 pmol, 1.25 pmol, 0.625 pmol, 0.3125 pmol] and measuring it in technical triplicates prior to each measurement. Linear regression was done by OriginPro 2016G.
We investigated if the disarming effect described in Example 3 would influence the biological functions. We used for this purpose mouse embryonic stem cells (mESC) that were primed in serum/Lif as a model system, since mdC levels increase from naïve to primed state. We added cAzadC 1 in two different concentrations (1 μM and 5 μM) to mESC that have been primed for 48 h and allowed the cells to further proliferate under priming conditions in the presence of cAzadC 1 for additional 72 h. After the 72 h, we harvested the cells, isolated the DNA and digested the DNA down to the nucleoside level using our described protocol.
The levels of mdC were finally precisely quantified using isotope dilution UHPLC-MS^2. To this end, isotopically labelled standards of the nucleosides were spiked-in for exact quantification. In addition to mdC, we quantified the levels of 5-hydroxymethyl-2′-deoxycytidine (hmdC), which is formed from mdC by the action of TET enzymes. The absolute levels of hmdC are in mESC more than ten times lower than the mdC levels. The consequence is that even after a substantial reduction of mdC, there should be sufficient mdC to keep the hmdC levels constant. The question if and by how much the hmdC level is affected can therefore inform us about how epigenetic reprogramming is organized.
Parallel to the quantification of mdC and hmdC we also quantified to which extend cAzadC 1 itself was incorporated into the genome of the mESC. Detection of AzadC in the genome of treated cells is only possible after treatment of the DNA with NaBH4. Application of NaBH4 reduces the C(5)=C(6) double bond, which stabilizes the compound so that its quantification becomes possible. To our delight, we noted that the stability of cAzadC 1 allowed its quantification without this pre-treatment. We also noted that the applied enzymatic digestion protocol allowed to digest genomic DNA (gDNA) even in the presence of large amounts of cAzadC 1. Taken together, quantification of cAzadC 1 by UHPLC-MS^2 using an external calibration curve was possible in parallel to quantification of canonical and epigenetic bases.

The nature of data set [2]: Test for hydrolytic stability in KH2PO4 buffer (HPLC). The class given is physicochemical. Conditions: for hydrolytic stability / degradation: aqueous KH2PO4 buffer 100 mM, pH 7.4, 5.5 and 8.5 (all tested pH values), 100 mM compound, r.t. On the procedure:
Both nucleosides were dissolved in aqueous KH2PO4 buffer (100 mM, pH=7.4, 5.5 and 8.5) in 100 mM concentration. The solutions were immediately analysed via HPLC (t=0 h) with subsequent HPLC analyses every 1.5 h or at indicated time points. As stationary phase an EC 250/4 NUCLEOSIL 120-3 C18 (Macherey-Nagel) chromatography column was used. The mobile phase consisted of water (buffer A) and acetonitrile (buffer B) at a flow-rate of 0.5 mL/min as follows: 0→25 min, 0→5% buffer B; 25 min→28 min, 5%→80%; 28 min→38 min, 80%; 38 min→43 min 80%→0%; 43 min→45 min, 0%.
Since one treatment cycle for AzadC goes over four weeks we decided to measure the stability at a time point related to a half cycle (14 d). NMR spectra were measured after keeping the solutions at r.t.

Data set [3] in a line: HPLC stability test of a neutral solution in pure water (FIG. 5). Type of data set: physicochemical. Conditions: 100 mM solutions in pure water, t=0 h to 6 d. Here is the method: FIG. 5. HPLC investigation of a neutral solution of Decitabine 1 (left) versus the carbacyclic compound cAzaC 20 (right). 100 mM solutions of the compounds were kept in pure water and tested at t=0 h, 1.5 h, 3 h, 4.5 h, 6 h, 24 h, 6 d.

Data set [4] relates to mouse embryonic stem cells (mESC). Conditions: from reference [19], cited from earlier work.

Take `Nc1ncn([C@@H]2C[C@H](CO)[C@@H](O)C2)c(=O)n1` [cAzadC 1, 4-Amino-1-[(1′R,3′S,4′R)-3′-hydroxy-4′-(hydroxymethyl)-cyclopentyl]-1H -[1,3,5]triazin-2-one]: in data set [1] (1 μM, 72 h), the “hmdC levels reduced to” value is listed as “about 50%”, the “nucleotides integrated into the genome” value is reported as ~3 million and the “level incorporated into the genome” value is 5×10^−4 cAzadC per dN. The “incorporated level relative to the AzadC level” value in data set [1] (1 μM, compared with AzadC at 1 μM [19]) is “about a third”. Besides, the “increase of incorporated level, 5 μM versus 1 μM” value in data set [1] (5 μM versus 1 μM) is on record as 3 fold. For the same compound, in data set [1] (5 μM, 72 h), the “nucleotides integrated per genome” value is on record as “more than 8 million” and the “level incorporated into the genome” value is 1.7×10^−3 cAzadC per dN. In addition, in data set [1] (5 μM, 72 h, 0.5 μg of genomic DNA), the hmdC detection entry was “unable to detect hmdC above background levels”. In data set [1] (72 h at 5 µM concentration in the medium), the “mdC levels, of the original value” is listed as “about 50%”. The “reduction of the mdC values” in data set [1] (72 h at 1 M cAzadC in the medium) is ~30%. Besides, in data set [1] (summary, concentration not given), the “mdC level relative to the control levels” value worked out at 70%. Moreover, the “hydrolytic stability / degradation” value in data set [2] (14 d) is recorded as “no degradation; also recorded: stable at all three pH values”.
On to `Nc1ncn([C@@H]2C[C@H](CO)[C@@H](O)[C@H]2O)c(=O)n1` [cAzaC 20, 4-Amino-1-[(1′R,2′S,3′R,4′R)-2′,3′-bishydroxy-4′-(hydroxymethyl) -cyclopentyl]-1H-[1,3,5]-triazin-2-one], for which the “stability compared with decitabine” value in data set [3] was “much more stable”.
Take `Nc1ncn([C@H]2C[C@H](O)[C@@H](CO)O2)c(=O)n1` [AzadC, 5-Aza-2′-deoxycytidine]: in data set [2] (14 d), the “hydrolytic stability / degradation” value is reported as “strongly degraded; also recorded: severe hydrolytic decomposition”. The intact compound remaining entry in data set [2] (pH=5.5, 14 d) is listed as “only hardly detectable”; in data set [2] (pH=8.5, 14 d), “only hardly detectable”. Also, in data set [2] (physiological pH (7.4), 14 d), the “intact compound remaining / degradation” value is listed as “still present after 14 d but the level of degradation is dramatic”. In data set [4] (24 h, 1 μM), the “decrease of mdC to % of the original value” is recorded as 50%. Further, in data set [4] (applied with 1 μM), the “level incorporated into the genome” value is 1.2×10^−3 AzadC per dN.
